Patent publication US20180353483A1, “PHARMACEUTICAL COMPOSITIONS AND METHODS FOR INDOLEAMINE, 2, 3-DIOXYGENASE INHIBITION AND INDICATIONS THEREFOR” (Incyte Corporation, priority 2015, published 2018)
Entries after “also recorded” stand apart in the source; their conditions may differ.

Assay: Dose-escalation study of Compound 1 pharmacokinetics in subjects with advanced malignancies (tablets of Formulations 1 and/or 3, fasted; food effect cohort)
Type: in vivo, human
Conditions: for tmax: median
From the text: Thus, Cmax, Cmin and Tmax were taken directly from the observed plasma concentration data or imputed in some cases. The terminal-phase disposition rate constant (λz) was estimated using a log-linear regression of the concentration data in the terminal disposition phase, and t1/2 was estimated as ln(2)/λz. AUC0-t and AUC0-τ was estimated using the linear trapezoidal rule for increasing concentrations and the log-trapezoidal rule for decreasing concentrations. At the PK steady-state, the apparent oral-dose clearance, CL/F, was estimated as Dose/AUC0-τ, and Vz/F was estimated as Dose/[AUC0-τ*λz].
The log-transformed pharmacokinetic parameters were compared among the BID dose groups using a 1-factor ANOVA with the factor for dose. Dose-dependent exposure parameters (Cmax and AUC) were normalized to a common dose before statistical comparisons were made.
The oral bioavailability (F) and systemic clearance (CL) were estimated. […] This method of estimation assumes near complete oral absorption and the liver being the primary organ for drug clearance. […] The above equation was modified to incorporate the term of Fa to accommodate an incomplete absorption: CL=(QH*Fa*CL/F)/(QH+Fa*CL/F).

[1] = 50 mg BID, steady state, geometric mean
[2] = 50 mg BID, steady state, mean ± SD
[3] = 50 mg QD, steady state, mean ± SD
[4] = 100 mg BID, steady state, geometric mean
[5] = 100 mg BID, steady state, mean ± SD
[6] = 300 mg BID, steady state, geometric mean
[7] = 300 mg BID, steady state, mean ± SD
[8] = 400 mg BID, steady state, geometric mean
[9] = 400 mg BID, steady state, mean ± SD
[10] = 500 mg BID, steady state, geometric mean
[11] = 500 mg BID, steady state, mean ± SD
[12] = 600 mg BID, steady state, geometric mean
[13] = 600 mg BID, steady state, mean ± SD
[14] = 700 mg BID, steady state, geometric mean
[15] = 700 mg BID, steady state, mean ± SD

NS(=O)(=O)NCCNc1nonc1C(=NO)Nc1ccc(F)c(Br)c1 [Compound 1, 4-({2-[(aminosulfonyl)amino]ethyl}amino)-N-(3-bromo-4-fluorophenyl)-N′-hydroxy-1,2,5-oxadiazole-3-carboximidamide]
CL/F [1]: 40.3 L/h | Cmax [1]: 715 nM | AUC0-τ [2]: 3.05 ± 1.36 µM·h | CL/F [2]: 43.3 ± 19.2 L/h | Cmax [2]: 742 ± 212 nM | Cmin [2]: 84 ± 63 nM | t1/2 [2]: 2.4 ± 0.56 h | tmax (50 mg BID, steady state): 2.0 h | trough concentrations (50 mg QD): low and generally not quantifiable | CL/F (50 mg QD, steady state, geometric mean): 73.0 L/h | AUC(0-t) [3]: 1.39 ± 0.256 µM·h | CL/F [3]: 73.8 ± 14.7 L/h | Cmin [3]: 0 ± 0 nM | t1/2 [3]: 2.4 ± 0.26 h | tmax (50 mg QD, steady state): 2.0 h | CL/F [4]: 42.4 L/h | Cmin [4]: 171 nM | AUC0-τ [5]: 5.77 ± 2.34 µM·h | CL/F [5]: 45.8 ± 20.9 L/h | Cmax [5]: 1230 ± 348 nM | Cmin [5]: 201 ± 111 nM | t1/2 [5]: 3.3 ± 0.75 h | tmax (100 mg BID, steady state): 2.0 h | CL/F [6]: 70.2 L/h | Cmin [6]: 251 nM | t1/2 [6]: 3.5 h | AUC0-τ [7]: 9.78 ± 0.86 µM·h | CL/F [7]: 70.4 ± 6.19 L/h | Cmax [7]: 2480 ± 515 nM | Cmin [7]: 287 ± 146 nM | t1/2 [7]: 3.9 ± 2.1 h | tmax (300 mg BID, steady state): 2.0 h | CL/F [8]: 51.8 L/h | Cmin [8]: 523 nM | AUC0-τ [9]: 19.6 ± 7.43 µM·h | CL/F [9]: 62.3 ± 52.3 L/h | Cmax [9]: 4390 ± 2020 nM | Cmin [9]: 624 ± 339 nM | t1/2 [9]: 2.7 ± 0.62 h | tmax (400 mg BID, steady state): 2.0 h | CL/F [10]: 58.0 L/h | Cmin [10]: 562 nM | AUC0-τ [11]: 20.6 ± 6.82 µM·h | CL/F [11]: 60.5 ± 19.1 L/h | Cmin [11]: 604 ± 260 nM | t1/2 [11]: 2.4 ± 0.37 h | tmax (500 mg BID, steady state): 2.0 h | effect of a high-fat meal on plasma exposures (600 mg BID, 1-way crossover ANOVA): not statistically significant | tmax (600 mg BID, food effect cohort, Fasted): 2.0 h | decrease of geometric mean Cmax by a high-fat meal (600 mg BID, steady state): approximately 10% | increase of geometric mean AUC0-12h by a high-fat meal (600 mg BID, steady state): 22% | CL/F [12]: 63.5 L/h | Cmin [12]: 731 nM | CL/F [13]: 66.4 ± 18.6 L/h | Cmin [13]: 932 ± 704 nM | t1/2 [13]: 3.3 ± 0.97 h | tmax (600 mg BID, steady state): 2.0 h | highest steady-state mean unbound daily AUC0-24h (=2×AUC0-12h) (700 mg BID): 2.2 µM·h | CL/F [14]: 47.2 L/h | Cmin [14]: 1260 nM | AUC0-τ [15]: 35.8 ± 15.5 µM·h | CL/F [15]: 49.5 ± 17.1 L/h | Cmax [15]: 6230 ± 2090 nM | Cmin [15]: 1320 ± 417 nM | dose proportionality of exposures (Cmax and AUC) (50 to 700 mg BID): slightly less than proportional to dose; also recorded: less than proportional to dose
